Test results published in patent US7994209B2, “3-phenoxymethylpyrrolidine compounds” (Theravance, Inc., priority 2009, dated 2011).

Experiments:
hSERT [1] = target: T1, hSERT (Homo sapiens, UniProt P31645); experiment: hSERT membrane radioligand binding assay (3H-citalopram), Assay 1; details: SERT pKi, hSERT HEK-293 membranes, 1.0 nM 3H-citalopram; values given as lower bounds
Protocol: Membrane radioligand binding assays were used to measure inhibition of labeled ligand (^3H-citalopram or ^3H-nisoxetine or ^3H-WIN35428) binding to membranes prepared from cells expressing the respective human recombinant transporter (hSERT or hNET or hDAT) in order to determine the pKi values of test compounds at the transporters.
Recombinant human embryonic kidney (HEK-293) derived cell lines stably transfected with hSERT or hNET, respectively, were grown in DMEM medium supplemented with 10% dialyzed FBS (for hSERT) or FBS (for hNET), 100 μg/mL penicillin, 100 μg/mL streptomycin, 2 mM L-glutamine and 250 μg/mL of the aminoglycoside antibiotic G418, in a 5% CO2 humidified incubator at 37° C. When cultures reached 80% confluence, the cells were washed thoroughly in PBS (without Ca^2+ and Mg^2+) and lifted with 5 mM EDTA in PBS. Cells were pelleted by centrifugation, resuspended in lysis buffer (10 mM Tris-HCl, pH7.5 containing 1 mM EDTA), homogenized, pelleted by centrifugation, then resuspended in 50 mM Tris-HCl, pH 7.5 and 10% sucrose at 4° C. Protein concentration of the membrane suspension was determined using a Bio-Rad Bradford Protein Assay kit. Membranes were snap frozen and stored at −80° C.
Binding assays were performed in a 96-well assay plate in a total volume of 200 μl assay buffer (50 mM Tris-HCl, 120 mM NaCl, 5 mM KCl, pH 7.4) with 0.5, 1, and 3 μg membrane protein, for SERT, NET and DAT, respectively.
Stock solutions (10 mM in DMSO) of test compound were prepared and serial dilutions made using Dilution Buffer (50 mM Tris-HCl, 120 mM NaCl, 5 mM KCl, pH 7.4, 0.1% BSA, 400 μM ascorbic acid).
Following a 60 minute incubation at 22° C. (or a period sufficient to reach equilibrium), the membranes were harvested by rapid filtration over a 96-well UniFilter GF/B plate, pretreated with 0.3% polyethyleneimine, and washed 6 times with 300 μl wash buffer (50 mM Tris-HCl, 0.9% NaCl, pH 7.5 at 4° C.). Plates were dried overnight at room temperature, approximately 45 μl of MicroScint™-20 (Perkin Elmer) added and bound radioactivity quantitated via liquid scintillation spectroscopy. Inhibition curves and saturation isotherms were analyzed using GraphPad Prism Software package (GraphPad Software, Inc., San Diego, Calif.). IC50 values were generated from concentration response curves using the Sigmoidal Dose Response (variable slope) algorithm in Prism GraphPad.

hNET [2] = target: T2, hNET (Homo sapiens, UniProt P23975); experiment: hNET membrane radioligand binding assay (3H-nisoxetine), Assay 1
T2 sequence (P23975 whole entry): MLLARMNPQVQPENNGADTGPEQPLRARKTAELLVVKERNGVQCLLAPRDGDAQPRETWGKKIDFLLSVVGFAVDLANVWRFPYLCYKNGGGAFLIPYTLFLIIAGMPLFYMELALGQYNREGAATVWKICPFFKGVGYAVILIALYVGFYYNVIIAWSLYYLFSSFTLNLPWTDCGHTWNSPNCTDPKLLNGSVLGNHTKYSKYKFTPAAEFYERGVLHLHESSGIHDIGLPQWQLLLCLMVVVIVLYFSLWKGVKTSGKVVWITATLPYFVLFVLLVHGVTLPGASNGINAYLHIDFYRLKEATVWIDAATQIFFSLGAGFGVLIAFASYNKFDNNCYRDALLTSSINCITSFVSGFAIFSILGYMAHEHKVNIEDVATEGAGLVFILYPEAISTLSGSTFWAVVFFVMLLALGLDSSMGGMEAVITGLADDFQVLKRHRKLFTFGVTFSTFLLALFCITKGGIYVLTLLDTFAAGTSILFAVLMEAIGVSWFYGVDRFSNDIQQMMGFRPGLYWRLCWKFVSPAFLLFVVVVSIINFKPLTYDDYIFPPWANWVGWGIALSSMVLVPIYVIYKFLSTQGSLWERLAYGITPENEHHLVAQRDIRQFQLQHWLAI

hNET [3] = target: T2, hNET; experiment: hNET neurotransmitter uptake assay (3H-NE), Assay 2; type: cell-based; design: expressed in transfected cells; host or cells: HEK-293; details: norepinephrine reuptake inhibition, 3H-NE uptake, HEK-293 hNET cells (values without asterisk); read-out: NET pIC50 (converted)
hSERT [4] = target: T1, hSERT; experiment: hSERT neurotransmitter uptake assay (3H-5-HT), Assay 2; type: cell-based; design: expressed in transfected cells; host or cells: HEK-293; details: serotonin reuptake inhibition, 3H-5-HT uptake, HEK-293 hSERT cells (values without asterisk); read-out: SERT pIC50 (converted)

T1 sequence (P31645 whole entry): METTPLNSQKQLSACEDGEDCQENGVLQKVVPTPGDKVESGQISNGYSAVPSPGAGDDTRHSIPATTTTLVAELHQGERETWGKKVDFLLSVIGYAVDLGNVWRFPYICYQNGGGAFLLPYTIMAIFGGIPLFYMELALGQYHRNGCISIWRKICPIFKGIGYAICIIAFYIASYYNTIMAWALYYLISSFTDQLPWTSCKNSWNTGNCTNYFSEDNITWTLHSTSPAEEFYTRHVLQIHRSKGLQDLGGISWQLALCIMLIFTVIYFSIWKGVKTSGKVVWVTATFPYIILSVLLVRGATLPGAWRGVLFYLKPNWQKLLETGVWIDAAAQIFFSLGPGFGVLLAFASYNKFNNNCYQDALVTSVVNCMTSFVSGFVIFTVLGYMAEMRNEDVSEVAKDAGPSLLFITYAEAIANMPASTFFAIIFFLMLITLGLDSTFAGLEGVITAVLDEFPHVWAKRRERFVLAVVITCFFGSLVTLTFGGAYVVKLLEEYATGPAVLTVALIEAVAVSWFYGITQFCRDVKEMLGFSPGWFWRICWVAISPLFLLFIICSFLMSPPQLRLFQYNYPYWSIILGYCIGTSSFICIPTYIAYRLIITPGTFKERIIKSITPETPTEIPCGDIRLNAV

SMILES	Ki (hSERT [1]) [nM]	Ki (hNET [2]) [nM]	IC50 (hNET [3]) [nM]	IC50 (hSERT [4]) [nM]
CC(C)C[C@@H](Oc1cccc(Cl)c1Cl)[C@H]1CCNC1 [Example 10-23, (S)-3-[(R)-1-(2,3-Dichlorophenoxy)-3-methylbutyl]pyrrolidine]	≤ 10	≤ 10	≤ 10	≤ 10
CC(C)CC(Oc1cccc(C(F)(F)F)c1Cl)C1CCNC1 (stereo not shown) [Example 10-29, 3-[1-(2-Chloro-3-trifluoromethylphenoxy)-3-methylbutyl]pyrrolidine]	≤ 10	≤ 10	≤ 10	≤ 10
CC(C)C[C@H](Oc1cccc(C(F)(F)F)c1Cl)[C@H]1CCNC1 [Example 10-30, (S)-3-[(S)-1-(2-Chloro-3-trifluoromethylphenoxy)-3-methylbutyl]pyrrolidine]	≤ 10	≤ 10	≤ 10	≤ 10
Cc1c(Cl)cccc1O[C@H](CC(C)C)[C@H]1CCNC1 [Example 10-31, (S)-3-[(R)-1-(3-Chloro-2-methylphenoxy)-3-methylbutyl]pyrrolidine]	≤ 10	≤ 10	≤ 10	≤ 10
CC(C)CC(Oc1cccc(Cl)c1C(F)(F)F)C1CCNC1 (stereo not shown) [Example 10-35, 3-[1-(3-Chloro-2-trifluoromethylphenoxy)-3-methylbutyl]pyrrolidine]	≤ 10	≤ 10	≤ 10	≤ 10
CC(C)C[C@H](Oc1cccc(Cl)c1C(F)(F)F)[C@H]1CCNC1 [Example 10-36, (S)-3-[(S)-1-(3-Chloro-2-trifluoromethylphenoxy)-3-methylbutyl]pyrrolidine]	≤ 10	≤ 10	≤ 10	≤ 10
Cc1cc(Cl)ccc1O[C@H](CC(C)C)[C@H]1CCNC1 [Example 10-45, (S)-3-[(R)-1-(4-Chloro-2-methylphenoxy)-3-methylbutyl]pyrrolidine]	≤ 10	≤ 10	≤ 10	≤ 10
Cc1cc(Cl)ccc1O[C@@H](CC(C)C)[C@H]1CCNC1 [Example 10-47, (S)-3-[(S)-1-(4-Chloro-2-methylphenoxy)-3-methylbutyl]pyrrolidine]	≤ 10	≤ 10	≤ 10	≤ 10
CC(C)CC(Oc1ccc(Cl)cc1C(F)(F)F)C1CCNC1 (stereo not shown) [Example 10-48, 3-[1-(4-Chloro-2-trifluoromethylphenoxy)-3-methylbutyl]pyrrolidine]	≤ 10	≤ 10	≤ 10	≤ 10
COc1cc(Cl)ccc1O[C@@H](CC(C)C)[C@H]1CCNC1 [Example 10-49, (S)-3-[(S)-1-(4-Chloro-2-methoxyphenoxy)-3-methylbutyl]pyrrolidine]	≤ 10	≤ 10	≤ 10	≤ 10
COc1ccc(F)cc1O[C@@H](CC(C)C)[C@H]1CCNC1 [Example 10-50, (S)-3-[(S)-1-(5-Fluoro-2-methoxyphenoxy)-3-methylbutyl]pyrrolidine]	≤ 10	≤ 10	≤ 10	≤ 100
CC(C)CC(Oc1c(Cl)cccc1Cl)C1CCNC1 (stereo not shown) [Example 10-53, 3-[1-(2,6-Dichlorophenoxy)-3-methylbutyl]pyrrolidine]	≤ 10	≤ 10	≤ 10	≤ 10
CC(C)C[C@H](Oc1c(Cl)cccc1Cl)[C@H]1CCNC1 [Example 10-54, (S)-3-[(S)-1-(2,6-Dichlorophenoxy)-3-methylbutyl]pyrrolidine]	≤ 10	≤ 10	≤ 10	≤ 10
CC(C)C[C@H](Oc1cc(F)c(F)cc1F)[C@H]1CCNC1 [Example 10-57, (S)-3-[(S)-3-Methyl-1-(2,4,5-trifluorophenoxy)butyl]pyrrolidine]	≤ 10	≤ 10	≤ 10	≤ 100
CC(C)CC(Oc1c(Cl)ccc(Cl)c1F)C1CCNC1 (stereo not shown) [Example 10-58, 3-[1-(3,6-Dichloro-2-fluorophenoxy)-3-methylbutyl]pyrrolidine]	≤ 10	≤ 10	≤ 10	≤ 10
CC(C)C[C@H](Oc1ccc(Cl)c(Cl)c1F)[C@H]1CCNC1 [Example 10-61, (S)-3-[(S)-1-(3,4-Dichloro-2-fluorophenoxy)-3-methylbutyl]pyrrolidine]	≤ 10	≤ 10	≤ 10	≤ 10
CC(C)CC(Oc1c(F)ccc(F)c1Cl)C1CCNC1 (stereo not shown) [Example 10-62, 3-[1-(2-Chloro-3,6-difluorophenoxy)-3-methylbutyl]pyrrolidine]	≤ 10	≤ 10	≤ 10	≤ 10
CC(C)CC(Oc1c(F)cc(Cl)cc1F)C1CCNC1 (stereo not shown) [Example 10-66, 3-[1-(4-Chloro-2,6-difluorophenoxy)-3-methylbutyl]pyrrolidine]	≤ 10	≤ 10	≤ 10	≤ 10
CC(C)C[C@H](Oc1ccc(Cl)c(F)c1F)[C@H]1CCNC1 [Example 10-68, (S)-3-[(S)-1-(4-Chloro-2,3-difluorophenoxy)-3-methylbutyl]pyrrolidine]	≤ 10	≤ 10	≤ 10	≤ 10
CC(C)C[C@H](Oc1c(Cl)ccc(Cl)c1F)[C@H]1CCNC1 [Example 10-69, (S)-3-[(S)-1-(3,6-Dichloro-2-fluorophenoxy)-3-methylbutyl]pyrrolidine]	≤ 10	≤ 10	≤ 10	≤ 10
CC(C)C[C@H](Oc1cc(Cl)cc(Cl)c1)[C@H]1CCNC1 [Example 10-77, (S)-3-[(S)-1-(3,5-Dichlorophenoxy)-3-methylbutyl]pyrrolidine]	≤ 10	≤ 10	≤ 10	≤ 10
CC(C)CC(Oc1cc(Cl)cc(Cl)c1)C1CCNC1 (stereo not shown) [Example 10-78, 3-[1-(3,5-Dichlorophenoxy)-3-methylbutyl]pyrrolidine]	≤ 10	≤ 10	≤ 10	≤ 10
CC(C)C[C@@H](Oc1cc(Cl)cc(Cl)c1)[C@H]1CCNC1 [Example 10-79, (S)-3-[(R)-1-(3,5-Dichlorophenoxy)-3-methylbutyl]pyrrolidine]	≤ 10	≤ 10	≤ 10	≤ 10

Continued, values first:

Ki (hSERT [1]) [nM]	Ki (hNET [2]) [nM]	IC50 (hNET [3]) [nM]	IC50 (hSERT [4]) [nM]	SMILES
≤ 10	≤ 10	≤ 10	≤ 10	CC(C)C[C@H](Oc1cccc(F)c1Cl)[C@H]1CCNC1 [Example 10-25, (S)-3-[(S)-1-(2-Chloro-3-fluorophenoxy)-3-methylbutyl]pyrrolidine]
≤ 10	≤ 10	≤ 10	≤ 10	CC(C)C[C@@H](Oc1cccc(F)c1Cl)[C@H]1CCNC1 [Example 10-27, (S)-3-[(R)-1-(2-Chloro-3-fluorophenoxy)-3-methylbutyl]pyrrolidine]
≤ 10	≤ 10	≤ 10	≤ 10	CC(C)CC(Oc1ccc(Cl)cc1F)C1CCNC1 (stereo not shown) [Example 10-39, 3-[1-(4-Chloro-2-fluorophenoxy)-3-methylbutyl]pyrrolidine]
≤ 10	≤ 10	≤ 10	≤ 10	CC(C)C[C@H](Oc1ccc(Cl)cc1F)[C@H]1CCNC1 [Example 10-41, (S)-3-[(S)-1-(4-Chloro-2-fluorophenoxy)-3-methylbutyl]pyrrolidine]
≤ 10	≤ 10	≤ 10	≤ 10	CC(C)C[C@H](Oc1ccc(Cl)cc1Cl)[C@H]1CCNC1 [Example 10-42, (S)-3-[(S)-1-(2,4-Dichlorophenoxy)-3-methylbutyl]pyrrolidine]
≤ 10	≤ 100	≤ 10	≤ 10	CC(C)C[C@@H](Oc1ccc(Cl)cc1Cl)[C@H]1CCNC1 [Example 10-44, (S)-3-[(R)-1-(2,4-Dichlorophenoxy)-3-methylbutyl]pyrrolidine]
≤ 10	≤ 10	≤ 10	≤ 10	CC(C)C[C@H](Oc1c(F)cccc1Cl)[C@H]1CCNC1 [Example 10-52, (S)-3-[(S)-1-(2-Chloro-6-fluorophenoxy)-3-methylbutyl]pyrrolidine]
≤ 10	≤ 10	≤ 10	≤ 10	CC(C)CC(Oc1c(F)ccc(Cl)c1F)C1CCNC1 (stereo not shown) [Example 10-59, 3-[1-(3-Chloro-2,6-difluorophenoxy)-3-methylbutyl]pyrrolidine]
≤ 10	≤ 10	≤ 10	≤ 10	CC(C)CC(Oc1c(F)ccc(Cl)c1Cl)C1CCNC1 (stereo not shown) [Example 10-64, 3-[1(2,3-Dichloro-6-fluorophenoxy)-3-methylbutyl]pyrrolidine]
≤ 10	≤ 10	≤ 10	≤ 10	CC(C)CC(Oc1ccc(Cl)c(F)c1)C1CCNC1 (stereo not shown) [Example 10-70, 3-[1-(4-Chloro-3-fluorophenoxy)-3-methylbutyl]pyrrolidine]
≤ 10	≤ 10	≤ 10	≤ 10	CC(C)C[C@@H](Oc1ccc(Cl)c(Cl)c1)[C@H]1CCNC1 [Example 10-73, (S)-3-[(R)-1-(3,4-Dichlorophenoxy)-3-methylbutyl]pyrrolidine]
